Values quoted from earlier work, collected in patent publication US7510836B2, “Alpha arteether resistance domain” (priority 2003, dated 2009).

Legend:
[1] = test system: malaria; conditions: cited from earlier work
[2] = cited from earlier work
[3] = cited from earlier work; remark: listed apart in the source

For `C[C@@H]1CC[C@H]2[C@@H](C)C(=O)O[C@@H]3O[C@@]4(C)CC[C@@H]1[C@]32OO4` [Artemisinin, artemisinin], the Plasmodicidal property [1] is listed as “high plasmodicidal property”, the half-life [2] is listed as “short” and the “Solubility in most aprotic solvents” value ([3]; aprotic solvents) is listed as “readily soluble”. The “Solubility in water and oil” value ([3]; water and oil) was “poorly soluble”.
